From ChEMBL document CHEMBL5120855, “Potent 2,3-dihydrophthalazine-1,4-dione derivatives as dual inhibitors for mono-ADP-ribosyltransferases PARP10 and PARP15” (Eur J Med Chem, 2022) come the findings set out here.

The target in data set [1] is T1, Poly [ADP-ribose] polymerase tankyrase-2 (Homo sapiens, UniProt Q9H2K2).
T1 sequence (Q9H2K2 whole entry): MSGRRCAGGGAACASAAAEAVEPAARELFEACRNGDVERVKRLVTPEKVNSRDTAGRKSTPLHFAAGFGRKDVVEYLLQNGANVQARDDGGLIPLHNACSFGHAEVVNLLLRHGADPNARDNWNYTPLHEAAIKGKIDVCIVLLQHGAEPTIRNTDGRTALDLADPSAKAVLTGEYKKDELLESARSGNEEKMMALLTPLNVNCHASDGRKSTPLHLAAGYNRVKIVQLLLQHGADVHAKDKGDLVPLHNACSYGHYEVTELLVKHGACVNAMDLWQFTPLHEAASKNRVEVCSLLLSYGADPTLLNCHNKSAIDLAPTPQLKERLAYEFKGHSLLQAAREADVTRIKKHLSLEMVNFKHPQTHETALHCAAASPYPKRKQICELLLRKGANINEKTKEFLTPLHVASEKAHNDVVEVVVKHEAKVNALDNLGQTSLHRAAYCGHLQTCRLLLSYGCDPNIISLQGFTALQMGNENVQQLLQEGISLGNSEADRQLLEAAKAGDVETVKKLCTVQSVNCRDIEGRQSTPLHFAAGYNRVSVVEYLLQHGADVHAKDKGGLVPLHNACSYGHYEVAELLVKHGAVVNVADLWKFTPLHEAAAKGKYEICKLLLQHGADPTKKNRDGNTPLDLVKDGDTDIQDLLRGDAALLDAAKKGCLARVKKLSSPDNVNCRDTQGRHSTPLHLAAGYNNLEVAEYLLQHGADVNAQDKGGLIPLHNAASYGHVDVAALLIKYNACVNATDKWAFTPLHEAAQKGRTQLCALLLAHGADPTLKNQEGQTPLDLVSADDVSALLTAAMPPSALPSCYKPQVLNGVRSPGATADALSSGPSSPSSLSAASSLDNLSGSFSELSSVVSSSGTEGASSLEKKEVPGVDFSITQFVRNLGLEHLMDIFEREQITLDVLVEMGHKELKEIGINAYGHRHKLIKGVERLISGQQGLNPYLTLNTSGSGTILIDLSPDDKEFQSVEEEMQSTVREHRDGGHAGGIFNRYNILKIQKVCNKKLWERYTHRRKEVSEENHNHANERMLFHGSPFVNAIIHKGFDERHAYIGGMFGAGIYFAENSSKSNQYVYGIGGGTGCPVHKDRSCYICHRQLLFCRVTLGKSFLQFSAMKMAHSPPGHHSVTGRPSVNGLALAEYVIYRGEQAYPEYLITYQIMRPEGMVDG
Nature of the data set: Inhibition of human N-terminal 6His-tagged TNKS2 (1030 to 1317 residues) expressed in Escherichia coli Rosetta2 (DE3) cells using NAD+ as substrate incubated for 10 mins by fluorescence based analysis.

Data set [2] has as its target T2, Protein mono-ADP-ribosyltransferase PARP15 (Homo sapiens, UniProt Q460N3).
T2 sequence (Q460N3 whole entry): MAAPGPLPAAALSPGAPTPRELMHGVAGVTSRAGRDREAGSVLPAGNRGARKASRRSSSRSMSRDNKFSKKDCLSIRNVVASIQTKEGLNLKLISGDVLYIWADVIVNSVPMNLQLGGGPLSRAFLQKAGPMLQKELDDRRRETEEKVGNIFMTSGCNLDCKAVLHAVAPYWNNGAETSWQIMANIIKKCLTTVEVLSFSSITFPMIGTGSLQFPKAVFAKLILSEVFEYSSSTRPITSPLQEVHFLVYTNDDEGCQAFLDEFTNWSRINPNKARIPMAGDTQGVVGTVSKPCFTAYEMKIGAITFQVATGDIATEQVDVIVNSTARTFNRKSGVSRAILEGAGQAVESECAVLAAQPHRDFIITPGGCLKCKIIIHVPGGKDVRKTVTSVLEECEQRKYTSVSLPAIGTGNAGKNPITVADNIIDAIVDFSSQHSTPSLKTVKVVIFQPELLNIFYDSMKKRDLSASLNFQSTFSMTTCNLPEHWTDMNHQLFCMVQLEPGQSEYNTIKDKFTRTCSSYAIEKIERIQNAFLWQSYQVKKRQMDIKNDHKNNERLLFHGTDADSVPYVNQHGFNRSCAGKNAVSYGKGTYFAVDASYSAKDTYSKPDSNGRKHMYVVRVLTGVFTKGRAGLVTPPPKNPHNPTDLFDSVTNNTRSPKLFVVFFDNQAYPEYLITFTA
The data set can be described thus: Inhibition of human N-terminal 6His-tagged PARP15 (460 to 656 residues) expressed in Escherichia coli Rosetta2 (DE3) cells using NAD+ as substrate incubated for 10 mins by fluorescence based analysis.

For data set [3], the target named is T3, Protein mono-ADP-ribosyltransferase PARP10 (Homo sapiens, UniProt Q53GL7).
T3 sequence (Q53GL7 whole entry): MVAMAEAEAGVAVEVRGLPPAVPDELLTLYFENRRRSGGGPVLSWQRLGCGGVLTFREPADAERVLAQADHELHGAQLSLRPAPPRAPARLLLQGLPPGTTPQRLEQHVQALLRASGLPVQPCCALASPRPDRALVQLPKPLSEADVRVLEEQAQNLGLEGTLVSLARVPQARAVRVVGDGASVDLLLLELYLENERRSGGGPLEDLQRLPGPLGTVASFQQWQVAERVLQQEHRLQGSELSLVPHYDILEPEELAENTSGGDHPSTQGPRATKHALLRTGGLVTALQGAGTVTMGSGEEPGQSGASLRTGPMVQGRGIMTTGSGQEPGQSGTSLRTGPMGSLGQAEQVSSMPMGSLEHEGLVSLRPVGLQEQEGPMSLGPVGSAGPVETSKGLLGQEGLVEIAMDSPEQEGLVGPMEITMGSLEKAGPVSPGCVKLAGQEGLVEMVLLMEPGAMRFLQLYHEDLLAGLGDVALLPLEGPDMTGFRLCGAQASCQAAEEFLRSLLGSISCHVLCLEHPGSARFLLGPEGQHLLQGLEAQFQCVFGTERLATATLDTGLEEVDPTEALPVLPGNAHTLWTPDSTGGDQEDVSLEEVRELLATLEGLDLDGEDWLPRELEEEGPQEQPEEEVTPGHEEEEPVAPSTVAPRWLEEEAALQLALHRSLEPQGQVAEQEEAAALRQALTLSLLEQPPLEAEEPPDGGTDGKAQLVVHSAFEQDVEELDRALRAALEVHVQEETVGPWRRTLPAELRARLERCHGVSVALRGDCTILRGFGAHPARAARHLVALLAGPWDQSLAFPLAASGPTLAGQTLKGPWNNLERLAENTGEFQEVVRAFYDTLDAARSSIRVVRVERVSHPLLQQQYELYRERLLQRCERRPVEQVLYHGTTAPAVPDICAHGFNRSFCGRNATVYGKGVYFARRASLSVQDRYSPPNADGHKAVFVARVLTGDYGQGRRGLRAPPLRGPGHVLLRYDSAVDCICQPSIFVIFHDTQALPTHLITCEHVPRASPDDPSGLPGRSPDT
The data set can be described thus: Inhibition of human PARP-10 using NAD+ as substrate incubated for 10 mins by fluorescence based analysis.

Data set [4] deals with Poly [ADP-ribose] polymerase 2 (Homo sapiens, UniProt Q9UGN5). Nature of the data set: Inhibition of human PARP2 using NAD+ as substrate incubated for 10 mins by fluorescence based analysis.
Sequence of Poly [ADP-ribose] polymerase 2 (Q9UGN5 whole entry): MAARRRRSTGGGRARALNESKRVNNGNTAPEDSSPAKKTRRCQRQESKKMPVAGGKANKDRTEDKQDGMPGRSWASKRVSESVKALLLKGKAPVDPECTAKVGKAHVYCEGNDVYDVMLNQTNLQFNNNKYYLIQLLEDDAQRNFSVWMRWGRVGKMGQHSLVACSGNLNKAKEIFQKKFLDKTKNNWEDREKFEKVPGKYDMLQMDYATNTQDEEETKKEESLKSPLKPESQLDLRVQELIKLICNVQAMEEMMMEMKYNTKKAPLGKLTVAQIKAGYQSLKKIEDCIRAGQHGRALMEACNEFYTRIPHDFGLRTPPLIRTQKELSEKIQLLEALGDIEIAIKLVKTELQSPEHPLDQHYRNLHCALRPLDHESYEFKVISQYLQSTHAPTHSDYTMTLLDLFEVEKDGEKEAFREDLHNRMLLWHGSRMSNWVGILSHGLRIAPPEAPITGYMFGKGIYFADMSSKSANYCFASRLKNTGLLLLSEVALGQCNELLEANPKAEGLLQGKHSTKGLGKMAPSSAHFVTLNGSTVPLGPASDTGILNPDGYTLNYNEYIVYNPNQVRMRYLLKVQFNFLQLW
For data set [5], the target named is Protein mono-ADP-ribosyltransferase PARP14 (Homo sapiens, UniProt Q460N5). The data set can be described thus: Inhibition of human PARP14 using NAD+ as substrate incubated for 10 mins by fluorescence based analysis.
Sequence of Protein mono-ADP-ribosyltransferase PARP14 (Q460N5 whole entry): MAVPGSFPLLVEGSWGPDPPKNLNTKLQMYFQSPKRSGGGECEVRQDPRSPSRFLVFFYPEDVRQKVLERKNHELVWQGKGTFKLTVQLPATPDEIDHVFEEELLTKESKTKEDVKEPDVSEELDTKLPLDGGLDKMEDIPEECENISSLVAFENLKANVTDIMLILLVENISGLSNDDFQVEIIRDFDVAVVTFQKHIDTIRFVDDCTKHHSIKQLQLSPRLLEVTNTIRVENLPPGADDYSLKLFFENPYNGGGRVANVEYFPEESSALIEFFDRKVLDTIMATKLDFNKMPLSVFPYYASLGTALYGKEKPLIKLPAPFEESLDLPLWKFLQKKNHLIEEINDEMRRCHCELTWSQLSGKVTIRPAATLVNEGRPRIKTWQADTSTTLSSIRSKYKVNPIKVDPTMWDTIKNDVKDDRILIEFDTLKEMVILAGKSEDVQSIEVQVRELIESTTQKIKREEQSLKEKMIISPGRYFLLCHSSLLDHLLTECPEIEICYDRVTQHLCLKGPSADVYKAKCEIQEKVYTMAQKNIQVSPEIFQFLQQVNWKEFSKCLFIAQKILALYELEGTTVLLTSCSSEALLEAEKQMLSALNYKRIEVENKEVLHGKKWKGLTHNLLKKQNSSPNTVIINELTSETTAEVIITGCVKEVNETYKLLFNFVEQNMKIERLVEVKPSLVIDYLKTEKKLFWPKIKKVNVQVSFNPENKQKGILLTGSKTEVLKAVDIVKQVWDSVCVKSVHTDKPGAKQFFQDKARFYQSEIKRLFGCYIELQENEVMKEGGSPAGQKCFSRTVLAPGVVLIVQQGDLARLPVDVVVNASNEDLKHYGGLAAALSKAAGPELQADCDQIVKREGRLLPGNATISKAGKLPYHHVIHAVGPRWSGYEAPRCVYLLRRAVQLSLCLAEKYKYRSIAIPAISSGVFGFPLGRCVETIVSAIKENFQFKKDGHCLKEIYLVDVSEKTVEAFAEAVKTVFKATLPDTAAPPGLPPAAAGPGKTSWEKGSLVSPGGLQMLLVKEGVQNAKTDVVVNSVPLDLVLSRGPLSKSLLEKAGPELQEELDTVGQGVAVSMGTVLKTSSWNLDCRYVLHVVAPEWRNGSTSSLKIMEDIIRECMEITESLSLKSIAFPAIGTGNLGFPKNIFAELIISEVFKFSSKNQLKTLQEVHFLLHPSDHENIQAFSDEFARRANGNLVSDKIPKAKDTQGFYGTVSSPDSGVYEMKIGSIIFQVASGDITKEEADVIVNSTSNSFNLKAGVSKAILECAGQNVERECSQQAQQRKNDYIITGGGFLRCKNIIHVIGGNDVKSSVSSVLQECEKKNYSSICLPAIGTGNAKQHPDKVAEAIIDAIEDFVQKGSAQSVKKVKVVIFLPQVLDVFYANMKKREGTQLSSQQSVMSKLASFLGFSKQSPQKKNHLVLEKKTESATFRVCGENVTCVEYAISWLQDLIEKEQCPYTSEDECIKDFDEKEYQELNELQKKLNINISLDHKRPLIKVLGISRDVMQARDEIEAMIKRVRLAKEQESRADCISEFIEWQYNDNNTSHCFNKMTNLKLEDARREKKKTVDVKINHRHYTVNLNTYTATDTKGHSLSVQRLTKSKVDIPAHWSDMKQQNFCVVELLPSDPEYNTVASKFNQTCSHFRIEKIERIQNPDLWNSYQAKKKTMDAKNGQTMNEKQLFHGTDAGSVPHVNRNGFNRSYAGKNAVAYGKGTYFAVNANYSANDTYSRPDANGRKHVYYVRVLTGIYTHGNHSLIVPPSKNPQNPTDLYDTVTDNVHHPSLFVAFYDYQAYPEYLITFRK
In data set [6] the test system is HEK-293T. The data set can be described thus: Cytotoxicity against HEK293T cells assessed as reduction in cell viability at 100 uM measured after 24 hrs by WST-1 assay. It is filed as toxicity, cell-based. The settings on record: human. On the technique in general: Tetrazolium dyes change colour on reduction, which living cells bring about.
Data set [7] relates to HEK-293T. Nature of the data set: Cytotoxicity against HEK293T cells assessed as reduction in cell viability at 10 uM measured after 24 hrs by WST-1 assay. It is filed as toxicity, cell-based. The settings on record: human.
In data set [8] the target is T2, Protein mono-ADP-ribosyltransferase PARP15. The data set can be described thus: Inhibition of PARP15 (unknown origin).
For a further data set, the system named is HeLa. Nature of the data set: Rescue of cell viability in human HeLa cells expressing wild type PARP10 at upto 10 uM incubated for 10 to 12 days by methylene blue dye based colony formation assay. The class given is functional.

Some results are limits rather than exact numbers.

For the compound `COc1cc(OCc2ccccc2F)ccc1C(N)=O`, the IC50 in data set [1] is above 100000 nM; in data set [2], 2600 nM; in data set [3], 1900 nM; in data set [4], above 100000 nM; in data set [5] it was above 10000 nM. The Activity result with HEK-293T [6] is reported as “Toxic”; in the data set on HEK-293T [7] it was “Non-Toxic”.

In data set [8], `Cc1cccc(C(=O)N[C@H](C(N)=O)C(=O)c2ccc3c(=O)[nH][nH]c(=O)c3c2)c1` showed an IC50 of 200 nM.

`O=c1[nH][nH]c(=O)c2cc(OCc3ccccc3F)ccc12`: the EC50 in the data set on HeLa is 1600 nM. Further, the results for the IC50 in data set [2] and in data set [3] were 370 nM and 150 nM, respectively. Moreover, the Activity entry in the data set with HEK-293T [7] was “Non-Toxic”.

Take `O=c1[nH][nH]c(=O)c2cc(OCc3ccsc3)ccc12`: the EC50 in the data set with HeLa was 950 nM. In addition, the IC50 in data set [2] came to 400 nM; in data set [3] it was 160 nM. The Activity entry in the data set with HEK-293T [7] was “Non-Toxic”.

The term IC50 denotes the concentration needed to halve the response being measured. Usually EC50 stands for the concentration needed to bring the measured effect to its halfway point. A low value points to higher potency in that assay.
